Data published in patent publication US9592214B2, “Compounds for the treatment of autism in a baby child” (INSERM (INSTITUT NATIONAL DE LA SANTE ET DE LA RECHERCHE …, priority 2010, dated 2017).
“Also recorded” adds a separate entry of the source.

Columns and labels:
[1] = test system: hippocampal CA3 pyramidal neurons; assay: Whole-cell voltage clamp recordings of sEPSCs in offspring after maternal pretreatment; assay type: in vivo, rat; settings: P15 VPA rats, maternal bumetanide pretreatment; −70 mV; result in words
Experimental: Standard whole-cell recordings were performed in coronal neocortical rat or mouse brain slices at room temperature (20-22° C.) from the soma of hippocampal CA3 neurons using an EPC-10 (HEKA Elektronik, Germany) amplifier and filtered at 3-10 kHz. The internal solution contained (in mM): 130 K-gluconate, 10 Na-gluconate, 4 NaCl, 4 MgATP, 4 phosphocreatine, 10 HEPES, and 0.3 GTP (pH 7.3 with KOH). Biocytin (final concentration 0.3-0.5%) was added to the pipette solution to label the neurons from which recordings were obtained. Neurons were visualized by using infrared DIC video microscopy. Spontaneous postsynaptic currents were recorded for […] at the reversal potentials for […] currents (−70 mV). It should be specifically noted that all recordings were made in normal ACSF (1.3 mM MgCl2). Stored data were analyzed using the Mini Analysis 6.0.3 (Synaptosoft Inc., Chapell Hill, N.C.) and Origin (MicroCal, Northampton, Mass.) software. To minimize potential sampling bias, the pups from at least three deliveries for each condition were studied. Data are expressed as mean±S.E.M.
Bumetanide (10 μM), Oxytocin (1 μM) and Isoguvacine (2 μM) were directly added to the perfusion solutions. Bumetanide pretreatment (2-2.5 mg/kg) was given to the dams in drinking water. All drugs used were purchased from Sigma. […]

[2] = test system: Valproate rat model of autism; assay: Isolation-induced ultrasonic vocalizations; assay type: in vivo
Experimental: Time-mated female Wistar rats at gestational day E7-8 were housed under standard laboratory conditions. The in utero valproic acid (VPA) rodent model of autism spectrum disorders has been previously described in detail. Briefly, the sodium salt of VPA (Sigma-Aldrich) was dissolved in physiological saline solution to a concentration of 300 mg/ml. Pregnant rats received a single intra-peritoneal dose of 600 mg/kg on gestational day 12 (E12). The control dams received a single similar volume injection of saline at the same gestational time-point. Dams were housed individually and allowed to raise their own litters. The offspring were used for experiments on embryonic day 20 (E20) and postnatal (P) days 0, 2, 4, 7, 15 and 30 (after being weaned at P23). Experiments were carried out on offspring of either sex.
To induce ultrasonic vocalizations, […], and were placed into an isolation box (23×28×18 cm) located inside a sound attenuating isolation cubicle (54×57×41 cm; Coulbourn Instruments, Allentown, Pa., USA), and evaluated for ultrasonic vocalizations during a three minutes test. An ultrasound microphone (Avisoft UltraSoundGate Condenser microphone capsule CM16/CMPA, Avisoft Bioacoustics, Berlin, Germany), placed in the roof of the box, was sensitive to frequencies of 10 to 250 kHz. Vocalizations were recorded using the Avisoft Recorder software (version 4.2) with a sampling rate of 250 kHz in 16 bit format. For acoustical analysis, recordings were transferred to SASLab Pro (version 5.2; Avisoft Bioacoustics) and a fast Fourier transformation was conducted (512 FFT-length, 100% frame, Hamming window and 75% time window overlap). The accuracy of call detection was verified manually by an educated user. A Pearson correlation coefficient was computed to assess the relationship between Automatic and Manual analysis. There was 0.99 correlation between the two variables.
Bumetanide (10 μM), Oxytocin (1 μM) and Isoguvacine (2 μM) were directly added to the perfusion solutions. Bumetanide pretreatment (2-2.5 mg/kg) was given to the dams in drinking water. All drugs used were purchased from Sigma. SSR126768A (Sanofi-Synthelabo) pretreatment (1 mg/kg) was given to the dams in drinking water.

[3] = P4 VPA rats + maternal BUM pretreatment
[4] = P4 control rats + maternal BUM pretreatment

For `CCCCNc1cc(C(=O)O)cc(S(N)(=O)=O)c1Oc1ccccc1` [bumetanide], the sEPSCs frequency [1] was “decreases; also recorded: significantly reduced”, the “behavioral deficit (smaller number and shorter total duration of calls)” value ([2]; P4 VPA offspring, maternal bumetanide pretreatment, result in words) was “rescued this behavioral deficit” and the “Number of calls, isolation-induced USVs mean ± S.E.M” value [2, 3] was 56 ± 25 (n = 20). For the same compound, the “Total duration of calls, isolation-induced USVs mean ± S.E.M” value [2, 3] was 4 ± 2 (n = 20), the “Number of calls, isolation-induced USVs mean ± S.E.M” value [2, 4] was 62.6 ± 27.4 (n = 18) and the “Total duration of calls, isolation-induced USVs mean ± S.E.M” value [2, 4] was 4.6 ± 2.3 (n = 18).
